According to US10441627B2, “Method of treating prader-willi syndrome” (Ferring B.V., priority 2014, dated 2019):

What was measured:
[1] = tested on: human oxytocin (hOT) receptor vs human V2 (hV2) receptor; conditions: ratio of EC50 values; from Table 2 in WO2009/122285; cited from earlier work
[2] = tested on: subjects with Prader-Willi Syndrome (PWS); test: Double-blind, placebo-controlled clinical trial of carbetocin intranasal spray in subjects with PWS; format: in vivo, human; conditions: for Clinical Global Impression, Least-Squares Mean Change Carbetocin vs. Placebo: CGI-I 7-point clinician rating; for HPWSQ-R-C Behavior domain score, Least-Squares Mean Change Carbetocin vs. Placebo / HPWSQ-R-C Drive domain score, Least-Squares Mean Change Carbetocin vs. Placebo / HPWSQ-R-C Severity domain score, Least-Squares Mean Change Carbetocin vs. Placebo / HPWSQ-R-C total score, Least-Squares Mean Change Carbetocin vs. Placebo: clinician rated; for HPWSQ-R total score, Least-Squares Mean Change Carbetocin vs. Placebo / HPWSQ-R Behavior domain score, Least-Squares Mean Change Carbetocin vs. Placebo / HPWSQ-R Drive domain score, Least-Squares Mean Change Carbetocin vs. Placebo / HPWSQ-R Severity domain score, Least-Squares Mean Change Carbetocin vs. Placebo: parent/caregiver rated; for HPWSQ-R total score, Least-Squares Mean Change Carbetocin vs. Placebo: negative = improvement vs placebo
Procedure: A prospective, double-blind, placebo-controlled, parallel trial in subjects with PWS between 10 and 18 years of age with genetically confirmed diagnosis of PWS and a documented nutritional Phase 3 based on the criteria described in Miller et al, 2011 (Am J Med Genet A, 155A(5):1040-1049) was performed. The trial included a Screening Period, a 14-day Treatment Period, and a Follow-Up Period. Subjects, along with their parent/caregiver, were required to visit the investigational site 4 times over the course of the trial and participate in 2 phone call assessments. The trial schedule is listed below. • Visit 1: Screening Period (Day −7 to Day 0) • Visit 2: Baseline 1st day dosing on site (Day 1) • Visit 3: 2nd day dosing on site (Day 2) • Phone call assessment (Day 8±1) • Visit 4: End-of-Treatment Visit (Day 15) • Follow-up phone call (Day 19±3)
Following appropriate informed consent procedures, subjects underwent screening evaluations to determine eligibility before randomization. After randomization, efficacy measures and other assessments, including physical examination, vital signs, and collection of blood samples for clinical laboratory and pharmacokinetic evaluation, were performed at selected visits. Subjects were closely monitored for adverse events throughout the trial.
Prior to first dosing at the investigational site, parents/caregivers were trained on the proper use of the nasal spray device and procedures for investigational medicinal product (IMP) home delivery. Parents/caregivers were instructed to administer 3 intranasal spray pumps of blinded IMP per nostril 3 times daily before meals within the following intervals:
38 subjects, 10-18 years of age, with genetically confirmed diagnosis of PWS and documented nutritional phase 3 PWS criteria (based on Miller et al, 2011), were randomized. 36 subjects completed the study.
The carbetocin intranasal spray was prepared by dissolving […] in 0.9% sterile sodium chloride solution. Specifically, the preweighed carbetocin powder was reconstituted with the sodium chloride solution and subsequently transferred to a nasal spray device. Each spray pump actuation delivered a 50 μL volume of solution containing 1.6 mg carbetocin. Each dose consisted of 3 spray pump actuations in each nostril to deliver a total of 9.6 mg carbetocin. The daily dose of carbetocin was 28.8 mg.
The primary endpoint measured in this trial was change in the total score from Visit 2 to Visit 4 in Hyperphagia in Prader-Willi Syndrome Questionnaire-Responsiveness (HPWSQ-R), which was completed by the parent/caregiver.
1. Clinical Global Impression-Improvement (CGI-I) after treatment at Visit 4.
2. Change from Visit 2 to Visit 4 for the following measurements: • HPWSQ-R hyperphagia behavior, drive, and severity domain scores. • Hyperphagia in Prader-Willi Syndrome Questionnaire-Responsiveness—completed by the clinician (HPWSQ-R-C) total score. • HPWSQ-R-C hyperphagia behavior, drive, and severity domain scores.
3. Change from Visit 1 to Visit 4 for the following measurements: • Children's Yale-Brown Obsessive Compulsive Scale (CY-BOCS) score. • Food Domain of the Reiss Profile.
The primary endpoint was analyzed using an analysis of covariance model with treatment and site as fixed effects and HPWSQ-R total score at Visit 2 (baseline) as a covariate. The last observation carried forward method was used to carry forward non-missing values of HPWSQ-R total score during the phone call assessment (Day 8±1) to impute missing values of HPWSQ-R total score at Visit 4. The treatment group difference in total score between placebo and carbetocin was calculated by subtracting the mean change from baseline in placebo from that in the carbetocin group. A borderline statistically significant difference at the 10% significant level was achieved if the upper limit of the 90% 1-sided confidence interval for the treatment difference was less than zero. […]

**Q.** With `CC[C@H](C)[C@@H]1NC(=O)[C@H](Cc2ccc(O)cc2)NC(=O)[C@@H](N)CSSC[C@@H](C(=O)N2CCC[C@H]2C(=O)N[C@@H](CC(C)C)C(=O)NCC(N)=O)NC(=O)[C@H](CC(N)=O)NC(=O)[C@H](CCC(N)=O)NC1=O` [Oxytocin] as the compound, how does the “hV2/hOT selectivity ratio (EC50 hV2/EC50 hOT)” value [1] read?
**A.** 3

**Q.** What does the source list for carbetocin?
**A.** hV2/hOT selectivity ratio (EC50 hV2/EC50 hOT) [1]: 244; Clinical Global Impression, Least-Squares Mean Change Carbetocin vs. Placebo ([2]; Day 8, intranasal 28.8 mg/day): −0.9/0.0162; HPWSQ-R-C Behavior domain score, Least-Squares Mean Change Carbetocin vs. Placebo ([2]; Day 8, intranasal 28.8 mg/day): −5.4/0.0017; HPWSQ-R-C Drive domain score, Least-Squares Mean Change Carbetocin vs. Placebo ([2]; Day 8, intranasal 28.8 mg/day): −3.4/0.0019; HPWSQ-R-C Severity domain score, Least-Squares Mean Change Carbetocin vs. Placebo ([2]; Day 8, intranasal 28.8 mg/day): −1.7/0.0061; HPWSQ-R-C total score, Least-Squares Mean Change Carbetocin vs. Placebo ([2]; Day 8, intranasal 28.8 mg/day): −10.2/0.0017; CY-BOCS, Least-Squares Mean Change Carbetocin vs. Placebo ([2]; Day 8, intranasal 28.8 mg/day): −2.7/0.0956; Food Domain Score of Reiss Profile, Least-Squares Mean Change Carbetocin vs. Placebo ([2]; Day 8, intranasal 28.8 mg/day): −3.0/0.0184; HPWSQ-R total score, Least-Squares Mean Change Carbetocin vs. Placebo ([2]; Day 8, intranasal 9.6 mg three times daily (28.8 mg/day)): −5.2/0.0632; HPWSQ-R Behavior domain score, Least-Squares Mean Change Carbetocin vs. Placebo ([2]; Day 8, intranasal 28.8 mg/day): −1.9/0.1153; HPWSQ-R Drive domain score, Least-Squares Mean Change Carbetocin vs. Placebo ([2]; Day 8, intranasal 28.8 mg/day): −2.1/0.0625; HPWSQ-R Severity domain score, Least-Squares Mean Change Carbetocin vs. Placebo ([2]; Day 8, intranasal 28.8 mg/day): −1.1/0.0572; Clinical Global Impression, Least-Squares Mean Change Carbetocin vs. Placebo ([2]; Day 15, intranasal 28.8 mg/day): −0.8/0.0233; HPWSQ-R-C Behavior domain score, Least-Squares Mean Change Carbetocin vs. Placebo ([2]; Day 15, intranasal 28.8 mg/day): −4.3/0.0068; HPWSQ-R-C Drive domain score, Least-Squares Mean Change Carbetocin vs. Placebo ([2]; Day 15, intranasal 28.8 mg/day): −2.6/0.0340; HPWSQ-R-C Severity domain score, Least-Squares Mean Change Carbetocin vs. Placebo ([2]; Day 15, intranasal 28.8 mg/day): −2.2/0.0014; HPWSQ-R-C total score, Least-Squares Mean Change Carbetocin vs. Placebo ([2]; Day 15, intranasal 28.8 mg/day): −10.5/0.0014; CY-BOCS, Least-Squares Mean Change Carbetocin vs. Placebo ([2]; Day 15, intranasal 28.8 mg/day): −6.2/0.0047; Food Domain Score of Reiss Profile, Least-Squares Mean Change Carbetocin vs. Placebo ([2]; Day 15, intranasal 28.8 mg/day): −4.4/0.0132; HPWSQ-R Behavior domain score, Least-Squares Mean Change Carbetocin vs. Placebo ([2]; Day 15, intranasal 28.8 mg/day): −2.0/0.1172; HPWSQ-R Drive domain score, Least-Squares Mean Change Carbetocin vs. Placebo ([2]; Day 15, intranasal 28.8 mg/day): −1.6/0.1436; HPWSQ-R Severity domain score, Least-Squares Mean Change Carbetocin vs. Placebo ([2]; Day 15, intranasal 28.8 mg/day): −1.5/0.0248; HPWSQ-R total score, Least-Squares Mean Change Carbetocin vs. Placebo ([2]; Day 15, intranasal 28.8 mg/day): −6.7/0.0290; Improvement over placebo treated patients in HPWSQ-R, HPWSQ-R-C, CGI, CY-BOCS and Food Domain Score of Reiss Profile ([2]; Day 15 results, P<0.05): statistically significant improvement
